11 compounds from patent US12258327B2, “5-membered heteroaryl-containing aminopyridine compounds as EGFR inhibitors” (YUHAN CORPORATION, priority 2021, dated 2025) can be followed below.

Experiment [1] deals with EGFR wildtype (WT) (Homo sapiens, UniProt P00533). Description: Biochemical EGFR kinase assay (Lance Ultra TR-FRET), wildtype. The method in brief:
(§1)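 Kinase activity is measured by TR-FRET phosphopeptide detection. Compounds span 0.003 μM to 10 μM; the 1 h reaction at room temperature is quenched with EDTA, then labelled antibody (2 nM) is incubated 60 min before reading.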
On the technique in general: Time-resolved FRET reads energy transfer from a long-lived donor to a nearby acceptor.

The target in experiment [2] is EGFR L858R/C797S (Homo sapiens, UniProt P00533, C797S/L858R). The experiment in a line: Biochemical EGFR kinase assay (Lance Ultra TR-FRET), double mutant L858R/C797S. The essentials:
as §1

Experiment [3] has as its target EGFR del19/C797S (Homo sapiens, UniProt P00533, C797S/DEL746-750). Description: Biochemical EGFR kinase assay (Lance Ultra TR-FRET), double mutant del19/C797S. The essentials:
as §1

Experiment [4] addresses EGFR del19/T790M/C797S (Homo sapiens, UniProt P00533, C797S/DEL746-750/T790M). Description: Biochemical EGFR kinase assay (Lance Ultra TR-FRET), triple mutant del19/T790M/C797S. The essentials:
as §1

For experiment [5], the target named is EGFR L858R/T790M/C797S (Homo sapiens, UniProt P00533, C797S/L858R/T790M). Description: Biochemical EGFR kinase assay (Lance Ultra TR-FRET), triple mutant L858R/T790M/C797S. The essentials:
as §1

Where [6] appears, read: IC50 WT (nM) 100 μM ATP, 100 μM ATP.
[7] abbreviates: Km ATP, read-out: IC50 WT (nM) Km ATP.
The mark [8] stands for this setting: IC50 L858R/C797S (nM) 100 μM ATP, 100 μM ATP.
Where [9] appears, read: Km ATP, read-out: IC50 L858R/C797S (nM) Km ATP.
The mark [10] stands for this setting: IC50 del19/C797S (nM) 100 μM ATP, 100 μM ATP.
[11] abbreviates: Km ATP, read-out: IC50 del19/C797S (nM) Km ATP.
[12] abbreviates: IC50 del19/T790M/C797S (nM) 100 μM ATP, 100 μM ATP.
[13] abbreviates: Km ATP, read-out: IC50 del19/T790M/C797S (nM) Km ATP.
The mark [14] stands for this setting: IC50 L858R/T790M/C797S (nM) 100 μM ATP, 100 μM ATP.
Where [15] appears, read: Km ATP, read-out: IC50 L858R/T790M/C797S (nM) Km ATP.

Where two headings read alike, the source gives them in different places.

Sequence of EGFR wildtype (WT) (P00533 25-1210): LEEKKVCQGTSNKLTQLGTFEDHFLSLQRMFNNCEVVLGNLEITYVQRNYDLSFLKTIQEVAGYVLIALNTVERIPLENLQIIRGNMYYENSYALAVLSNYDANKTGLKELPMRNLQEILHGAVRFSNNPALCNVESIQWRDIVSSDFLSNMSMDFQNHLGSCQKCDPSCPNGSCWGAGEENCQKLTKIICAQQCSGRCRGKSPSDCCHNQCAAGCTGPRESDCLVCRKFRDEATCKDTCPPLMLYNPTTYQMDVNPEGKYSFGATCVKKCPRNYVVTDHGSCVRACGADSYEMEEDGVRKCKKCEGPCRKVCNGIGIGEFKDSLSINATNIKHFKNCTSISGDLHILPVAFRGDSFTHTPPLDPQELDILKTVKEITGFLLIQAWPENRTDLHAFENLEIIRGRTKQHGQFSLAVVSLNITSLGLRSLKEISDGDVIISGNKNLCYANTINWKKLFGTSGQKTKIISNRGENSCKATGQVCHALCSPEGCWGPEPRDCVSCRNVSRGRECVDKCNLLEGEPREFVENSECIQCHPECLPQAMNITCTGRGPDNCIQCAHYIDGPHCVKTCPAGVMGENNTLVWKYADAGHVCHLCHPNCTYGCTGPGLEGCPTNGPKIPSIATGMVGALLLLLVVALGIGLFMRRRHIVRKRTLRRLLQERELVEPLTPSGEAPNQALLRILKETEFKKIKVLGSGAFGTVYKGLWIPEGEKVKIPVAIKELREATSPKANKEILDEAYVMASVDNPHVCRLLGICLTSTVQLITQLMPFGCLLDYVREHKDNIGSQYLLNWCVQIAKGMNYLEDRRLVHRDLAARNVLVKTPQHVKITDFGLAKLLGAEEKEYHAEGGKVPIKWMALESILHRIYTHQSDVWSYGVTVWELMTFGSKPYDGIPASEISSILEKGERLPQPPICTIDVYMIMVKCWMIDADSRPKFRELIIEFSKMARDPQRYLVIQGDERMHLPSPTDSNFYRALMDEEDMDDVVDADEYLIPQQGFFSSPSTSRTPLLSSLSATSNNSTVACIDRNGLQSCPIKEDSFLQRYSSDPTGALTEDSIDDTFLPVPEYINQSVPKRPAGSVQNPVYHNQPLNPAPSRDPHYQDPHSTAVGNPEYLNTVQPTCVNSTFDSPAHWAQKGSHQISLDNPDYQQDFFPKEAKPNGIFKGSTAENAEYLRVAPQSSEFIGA
Sequence of EGFR L858R/C797S (P00533 25-1210 C797S/L858R): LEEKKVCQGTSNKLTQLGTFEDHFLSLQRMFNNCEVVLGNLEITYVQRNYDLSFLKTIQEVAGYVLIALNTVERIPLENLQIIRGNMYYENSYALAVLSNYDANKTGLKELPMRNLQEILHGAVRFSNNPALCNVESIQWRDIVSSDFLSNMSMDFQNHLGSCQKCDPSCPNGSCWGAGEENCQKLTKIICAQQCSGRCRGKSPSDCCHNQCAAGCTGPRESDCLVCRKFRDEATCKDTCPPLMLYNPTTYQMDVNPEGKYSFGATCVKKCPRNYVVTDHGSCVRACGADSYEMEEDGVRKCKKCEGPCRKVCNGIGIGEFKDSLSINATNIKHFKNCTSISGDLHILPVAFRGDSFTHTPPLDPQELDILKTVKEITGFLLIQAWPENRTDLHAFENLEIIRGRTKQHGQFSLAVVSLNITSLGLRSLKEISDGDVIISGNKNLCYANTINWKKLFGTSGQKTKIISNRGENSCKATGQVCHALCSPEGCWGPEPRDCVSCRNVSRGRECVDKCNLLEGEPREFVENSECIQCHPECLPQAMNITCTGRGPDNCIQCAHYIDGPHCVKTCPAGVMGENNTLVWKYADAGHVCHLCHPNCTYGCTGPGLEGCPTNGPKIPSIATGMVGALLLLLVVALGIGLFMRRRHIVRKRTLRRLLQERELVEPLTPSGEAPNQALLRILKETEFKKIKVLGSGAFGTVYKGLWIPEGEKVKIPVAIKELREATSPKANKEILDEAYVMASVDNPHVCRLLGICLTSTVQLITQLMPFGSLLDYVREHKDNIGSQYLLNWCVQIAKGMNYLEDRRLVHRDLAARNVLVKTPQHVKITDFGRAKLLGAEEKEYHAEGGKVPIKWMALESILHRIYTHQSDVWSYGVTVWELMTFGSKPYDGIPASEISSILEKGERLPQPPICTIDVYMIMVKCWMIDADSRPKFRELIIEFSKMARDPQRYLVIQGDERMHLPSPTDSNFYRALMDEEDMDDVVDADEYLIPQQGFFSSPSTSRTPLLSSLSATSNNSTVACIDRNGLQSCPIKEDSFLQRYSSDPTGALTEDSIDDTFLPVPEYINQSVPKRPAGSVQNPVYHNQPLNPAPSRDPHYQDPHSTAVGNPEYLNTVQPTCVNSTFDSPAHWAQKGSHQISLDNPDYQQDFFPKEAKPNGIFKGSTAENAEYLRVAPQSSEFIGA
Sequence of EGFR L858R/T790M/C797S (P00533 25-1210 T790M/C797S/L858R): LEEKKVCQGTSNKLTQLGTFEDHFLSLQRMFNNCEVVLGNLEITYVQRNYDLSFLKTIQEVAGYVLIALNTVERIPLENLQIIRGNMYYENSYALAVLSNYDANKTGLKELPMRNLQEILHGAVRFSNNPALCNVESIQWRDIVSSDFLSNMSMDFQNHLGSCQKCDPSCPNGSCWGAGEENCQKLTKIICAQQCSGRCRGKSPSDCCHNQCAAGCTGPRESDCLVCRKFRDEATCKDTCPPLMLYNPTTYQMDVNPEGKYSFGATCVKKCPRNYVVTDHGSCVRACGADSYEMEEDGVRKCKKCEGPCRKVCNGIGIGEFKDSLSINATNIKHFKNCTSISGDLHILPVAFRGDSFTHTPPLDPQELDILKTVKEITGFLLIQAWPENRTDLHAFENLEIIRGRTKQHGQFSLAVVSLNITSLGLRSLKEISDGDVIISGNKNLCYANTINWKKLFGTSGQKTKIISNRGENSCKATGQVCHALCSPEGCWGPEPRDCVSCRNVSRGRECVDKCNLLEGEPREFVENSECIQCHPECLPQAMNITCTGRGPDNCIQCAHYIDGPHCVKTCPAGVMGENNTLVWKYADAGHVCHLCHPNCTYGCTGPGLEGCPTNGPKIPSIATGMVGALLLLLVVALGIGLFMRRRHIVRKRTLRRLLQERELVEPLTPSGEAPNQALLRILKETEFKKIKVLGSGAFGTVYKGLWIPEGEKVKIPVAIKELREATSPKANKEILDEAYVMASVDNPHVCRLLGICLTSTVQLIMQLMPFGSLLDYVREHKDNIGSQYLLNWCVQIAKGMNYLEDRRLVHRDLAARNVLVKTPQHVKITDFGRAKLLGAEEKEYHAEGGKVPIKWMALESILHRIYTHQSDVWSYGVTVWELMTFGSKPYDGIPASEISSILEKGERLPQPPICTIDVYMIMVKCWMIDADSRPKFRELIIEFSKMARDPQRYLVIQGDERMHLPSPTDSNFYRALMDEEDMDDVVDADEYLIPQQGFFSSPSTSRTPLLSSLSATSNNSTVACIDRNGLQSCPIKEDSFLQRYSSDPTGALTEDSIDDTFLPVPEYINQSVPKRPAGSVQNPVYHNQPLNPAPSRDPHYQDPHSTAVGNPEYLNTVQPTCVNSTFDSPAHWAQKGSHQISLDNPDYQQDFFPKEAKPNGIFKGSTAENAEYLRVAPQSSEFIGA
Sequence of EGFR del19/T790M/C797S (P00533 with tags, fused parts or gaps DEL746-750/T790M/C797S): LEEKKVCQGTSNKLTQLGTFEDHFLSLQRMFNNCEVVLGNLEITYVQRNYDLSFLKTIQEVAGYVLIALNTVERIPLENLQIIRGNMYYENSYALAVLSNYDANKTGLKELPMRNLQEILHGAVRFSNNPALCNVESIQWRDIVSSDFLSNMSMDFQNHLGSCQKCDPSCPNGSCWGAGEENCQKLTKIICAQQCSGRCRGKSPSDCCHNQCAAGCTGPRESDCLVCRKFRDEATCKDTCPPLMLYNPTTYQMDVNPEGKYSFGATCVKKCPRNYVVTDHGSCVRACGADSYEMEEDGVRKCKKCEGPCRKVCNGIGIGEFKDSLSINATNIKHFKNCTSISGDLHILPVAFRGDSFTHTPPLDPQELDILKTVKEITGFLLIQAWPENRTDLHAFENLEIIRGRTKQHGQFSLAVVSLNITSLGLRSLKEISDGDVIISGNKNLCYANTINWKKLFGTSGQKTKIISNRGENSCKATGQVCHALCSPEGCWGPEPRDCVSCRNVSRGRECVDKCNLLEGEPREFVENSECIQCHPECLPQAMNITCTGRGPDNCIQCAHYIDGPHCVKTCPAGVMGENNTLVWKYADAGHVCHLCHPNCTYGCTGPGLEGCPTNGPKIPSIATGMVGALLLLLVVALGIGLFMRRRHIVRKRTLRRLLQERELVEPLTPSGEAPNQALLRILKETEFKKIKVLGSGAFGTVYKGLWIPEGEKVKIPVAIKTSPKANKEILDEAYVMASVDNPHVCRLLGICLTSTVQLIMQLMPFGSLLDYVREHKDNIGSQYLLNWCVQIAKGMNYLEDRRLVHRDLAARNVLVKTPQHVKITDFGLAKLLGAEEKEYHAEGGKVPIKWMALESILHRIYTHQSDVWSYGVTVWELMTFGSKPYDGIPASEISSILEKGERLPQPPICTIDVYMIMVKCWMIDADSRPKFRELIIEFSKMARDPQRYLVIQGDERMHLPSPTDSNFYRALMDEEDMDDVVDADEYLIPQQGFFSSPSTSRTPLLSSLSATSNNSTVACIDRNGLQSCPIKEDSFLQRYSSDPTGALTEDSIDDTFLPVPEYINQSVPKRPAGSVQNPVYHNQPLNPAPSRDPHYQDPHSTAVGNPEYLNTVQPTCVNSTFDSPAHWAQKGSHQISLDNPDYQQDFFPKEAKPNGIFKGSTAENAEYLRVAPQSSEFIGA

With `CN(C)C(=O)C[C@H]1CC[C@@H](Nc2cc(Nc3ccnc(-c4cnn(S(=O)(=O)C5CC5)c4)n3)ncc2-c2ccn(C)n2)CC1` [Example 236, 2-((1s,4s)-4-((2-((2-(1-(Cyclopropylsulfonyl)-1H-pyrazol-4-yl)pyrimidin-4-yl)amino)-5-(1-methyl-1H-pyrazol-3-yl)pyridin-4-yl)amino)cyclohexyl)-N,N-dimethylacetamide], the IC50 in experiment [1] (setting [6]) came to 565 nM; in experiment [1] (setting [7]), 0.5 nM; in experiment [2] (setting [8]) it was 2 nM; in experiment [2] (setting [9]), 0.1 nM; in experiment [3] (setting [10]), 0.3 nM; in experiment [3] (setting [11]) it was 0.2 nM. Also, the IC50 in experiment [4] (setting [12]) stood at 0.3 nM; in experiment [4] (setting [13]), 0.3 nM; in experiment [5] (setting [14]), 0.3 nM; in experiment [5] (setting [15]), 0.2 nM.

For the compound `O=S(=O)(C1CC1)n1cc(-c2nccc(Nc3cc(N[C@H]4C[C@@H](CO)C4)c(-c4ccn(C(F)F)n4)cn3)n2)cn1` [Example 377, ((1s,3s)-3-((2-((2-(1-(Cyclopropylsulfonyl)-1H-pyrazol-4-yl)pyrimidin-4-yl)amino)-5-(1-(difluoromethyl)-1H-pyrazol-3-yl)pyridin-4-yl)amino)cyclobutyl)methanol], the IC50 in experiment [1] (IC50 WT, 100 μM ATP) was above 10000 nM; in experiment [1] (Km ATP, read-out: IC50 WT, Km ATP) it was 98.8 nM; in experiment [2] (IC50 L858R/C797S, 100 μM ATP), 172 nM; in experiment [2] (Km ATP, read-out: IC50 L858R/C797S, Km ATP), 5.7 nM; in experiment [3] (IC50 del19/C797S, 100 μM ATP), 5.8 nM; in experiment [3] (Km ATP, read-out: IC50 del19/C797S, Km ATP), 4.2 nM. The IC50 is 0.4 nM in experiment [4] (IC50 del19/T790M/C797S, 100 μM ATP); 0.2 nM in experiment [4] (Km ATP, read-out: IC50 del19/T790M/C797S, Km ATP); 0.7 nM in experiment [5] (IC50 L858R/T790M/C797S, 100 μM ATP); 0.1 nM in experiment [5] (Km ATP, read-out: IC50 L858R/T790M/C797S, Km ATP).

For the compound `O=S(=O)(C1CC1)n1cc(-c2nccc(Nc3cc(NC4CCCC(NCC(F)F)C4)c(-c4ccn(C(F)F)n4)cn3)n2)cn1` (stereo not shown) [Example 191, N^2-(2-(1-(Cyclopropylsulfonyl)-1H-pyrazol-4-yl)pyrimidin-4-yl)-N^4-(3-((2,2-difluoroethyl)amino)cyclohexyl)-5-(1-(difluoromethyl)-1H-pyrazol-3-yl)pyridine-2,4-diamine], the IC50 is above 10000 nM in experiment [1] (setting [6]); 1400 nM in experiment [2] (setting [8]); 35.5 nM in experiment [3] (setting [10]); 1.7 nM in experiment [4] (setting [12]); 2.4 nM in experiment [5] (setting [14]).

`Cn1ccc(-c2cnc(Nc3ccnc(-c4cnn(S(=O)(=O)C5CC5)c4)n3)cc2N[C@H]2CC[C@@H](CCO)CC2)n1` [Example 136, 2-((1s,4s)-4-((2-((2-(1-(Cyclopropylsulfonyl)-1H-pyrazol-4-yl)pyrimidin-4-yl)amino)-5-(1-methyl-1H-pyrazol-3-yl)pyridin-4-yl)amino)cyclohexyl)ethan-1-ol]: the IC50 was found to be 321 nM in experiment [1] (setting [6]); 0.8 nM in experiment [2] (setting [8]); 0.2 nM in experiment [2] (setting [9]); 1.2 nM in experiment [3] (setting [10]); 0.3 nM in experiment [3] (setting [11]); 0.9 nM in experiment [4] (setting [12]). Besides, the IC50 was found to be 0.8 nM in experiment [4] (setting [13]), 1 nM in experiment [5] (setting [14]) and 0.4 nM in experiment [5] (setting [15]).

As to `Cn1ccc(-c2cnc(Nc3ccnc(-c4cnn(S(=O)(=O)C5CC5)c4)n3)cc2N[C@H]2CC[C@](O)(C(F)F)CC2)n1` [Example 231, (1s,4s)-4-((2-((2-(1-(Cyclopropylsulfonyl)-1H-pyrazol-4-yl)pyrimidin-4-yl)amino)-5-(1-methyl-1H-pyrazol-3-yl)pyridin-4-yl)amino)-1-(difluoromethyl)cyclohexan-1-ol], the IC50 in experiment [1] (setting [6]) is above 10000 nM; in experiment [1] (setting [7]) it was 37.3 nM; in experiment [2] (setting [8]), 11.5 nM; in experiment [2] (setting [9]), 3.1 nM; in experiment [3] (setting [10]), 2 nM; in experiment [3] (setting [11]), 2.4 nM. For the same compound, the IC50 in experiment [4] (setting [12]) stood at 0.5 nM; in experiment [4] (setting [13]), 0.3 nM; in experiment [5] (setting [14]), 0.7 nM; in experiment [5] (setting [15]) it was 0.3 nM.

`CS(=O)(=O)c1ccccc1Nc1nccc(Nc2cc(N[C@H]3CC[C@@](C)(O)CC3)c(-c3ccn(C(F)F)n3)cn2)n1` [Example 313, (1s,4s)-4-((5-(1-(Difluoromethyl)-1H-pyrazol-3-yl)-2-((2-((2-(methylsulfonyl)phenyl)amino)pyrimidin-4-yl)amino)pyridin-4-yl)amino)-1-methylcyclohexan-1-ol]: the IC50 in experiment [1] (setting [6]) is above 10000 nM; in experiment [1] (setting [7]), 1610 nM; in experiment [2] (setting [8]), 627 nM; in experiment [2] (setting [9]), 146 nM; in experiment [3] (setting [10]), 74.5 nM; in experiment [3] (setting [11]) it was 39.9 nM. Further, the IC50 is 2.1 nM in experiment [4] (setting [12]) and 12.6 nM in experiment [5] (setting [14]).

For the compound `O=S(=O)(C1CC1)n1cc(-c2nccc(Nc3cc(N[C@H]4CC[C@@H](CN5CCC5)CC4)c(-c4ccn(C(F)F)n4)cn3)n2)cn1` [Example 208, N^4-((1s,4s)-4-(Azetidin-1-ylmethyl)cyclohexyl)-N^2-(2-(1-(cyclopropylsulfonyl)-1H-pyrazol-4-yl)pyrimidin-4-yl)-5-(1-(difluoromethyl)-1H-pyrazol-3-yl)pyridine-2,4-diamine], the IC50 in experiment [1] (setting [6]) is 128 nM; in experiment [1] (setting [7]) it was 0.6 nM; in experiment [2] (setting [8]), 0.2 nM; in experiment [2] (setting [9]), 0.2 nM; in experiment [3] (setting [10]), 0.2 nM; in experiment [3] (setting [11]) it was 0.2 nM. Further, the IC50 in experiment [4] (setting [12]) is 0.3 nM; in experiment [4] (setting [13]) it was 0.3 nM; in experiment [5] (setting [14]) it was 0.1 nM; in experiment [5] (setting [15]), 0.1 nM.

`O=S(=O)(C1CC1)n1cc(-c2nccc(Nc3cc(NC[C@H]4C[C@H](CO)C4)c(-c4ccn(C(F)F)n4)cn3)n2)cn1` [Example 189, ((1r,3r)-3-(((2-((2-(1-(Cyclopropylsulfonyl)-1H-pyrazol-4-yl)pyrimidin-4-yl)amino)-5-(1-(difluoromethyl)-1H-pyrazol-3-yl)pyridin-4-yl)amino)methyl)cyclobutyl)methanol]: the IC50 in experiment [1] (setting [6]) is above 10000 nM; in experiment [1] (setting [7]), 20.1 nM; in experiment [2] (setting [8]), 27.1 nM; in experiment [2] (setting [9]), 3.1 nM; in experiment [3] (setting [10]) it was 1.8 nM; in experiment [3] (setting [11]), 1.2 nM. The IC50 in experiment [4] (setting [12]) was determined as 0.4 nM; in experiment [4] (setting [13]), 0.5 nM; in experiment [5] (setting [14]), 0.2 nM; in experiment [5] (setting [15]), 0.3 nM.

Consider `O=S(=O)(C1CC1)n1cc(-c2nccc(Nc3cc(N[C@H]4CC[C@](O)(CO)CC4)c(-c4ccn(C(F)F)n4)cn3)n2)cn1` [Example 188, (1s,4s)-4-((2-((2-(1-(Cyclopropylsulfonyl)-1H-pyrazol-4-yl)pyrimidin-4-yl)amino)-5-(1-(difluoromethyl)-1H-pyrazol-3-yl)pyridin-4-yl)amino)-1-(hydroxymethyl)cyclohexan-1-ol], for which the IC50 in experiment [1] (setting [6]) was above 10000 nM; in experiment [1] (setting [7]), 6.1 nM; in experiment [2] (setting [8]), 7.8 nM; in experiment [2] (setting [9]) it was 1.1 nM; in experiment [3] (setting [10]) it was 0.3 nM; in experiment [3] (setting [11]) it was 0.3 nM. The IC50 in experiment [4] (setting [12]) came to 0.2 nM; in experiment [4] (setting [13]), 0.3 nM; in experiment [5] (setting [14]) it was 0.2 nM; in experiment [5] (setting [15]) it was 0.1 nM.

In the case of `O=S(=O)(C1CC1)n1cc(-c2nccc(Nc3cc(N[C@H]4CC[C@@H](F)CC4)c(-c4ccn(CCC(F)(F)F)n4)cn3)n2)cn1` [Example 306, N^2-(2-(1-(Cyclopropylsulfonyl)-1H-pyrazol-4-yl)pyrimidin-4-yl)-N^4-((1s,4s)-4-fluorocyclohexyl)-5-(1-(3,3,3-trifluoropropyl)-1H-pyrazol-3-yl)pyridine-2,4-diamine], the IC50 in experiment [1] (setting [7]) was found to be 1290 nM; in experiment [2] (setting [9]), 47.9 nM; in experiment [3] (setting [11]), 171 nM; in experiment [4] (setting [13]) it was 9.1 nM; in experiment [5] (setting [15]), 5.9 nM.

Consider `C[C@]1(O)CC[C@@H](Nc2cc(Nc3nc(-c4cnn(S(=O)(=O)C5CC5)c4)ncc3F)ncc2-c2ccn(C(F)F)n2)CC1` [Example 316, (1s,4s)-4-((2-((2-(1-(Cyclopropylsulfonyl)-1H-pyrazol-4-yl)-5-fluoropyrimidin-4-yl)amino)-5-(1-(difluoromethyl)-1H-pyrazol-3-yl)pyridin-4-yl)amino)-1-methylcyclohexan-1-ol], for which the IC50 is above 10000 nM in experiment [1] (setting [6]); 46 nM in experiment [1] (setting [7]); 406 nM in experiment [2] (setting [8]); 11.2 nM in experiment [2] (setting [9]); 10.5 nM in experiment [3] (setting [10]); 6 nM in experiment [3] (setting [11]). Further, the IC50 in experiment [4] (setting [12]) came out at 0.7 nM; in experiment [4] (setting [13]), 0.4 nM; in experiment [5] (setting [14]), 1 nM; in experiment [5] (setting [15]), 0.2 nM.
